Source: patent US4737497A, “Bis-dioxopiperazine derivatives, antitumor agents comprising them and compositions containing them” (Zenyaki Kogyo Kabushiki Kaisha, priority 1983, dated 1988)
Converted amounts (≈) assume the structure as drawn.

Experiments:
[1] = test system: B-16 melanoma; assay: Growth inhibition test on B-16 melanoma; assay type: in vivo, mice (BDF1 (C57BL/6×DBA/2)); details: Mus musculus, B16, po, 480 h, orally, once a day for 8 days, tumor weight on 20th day, read-out: G.I. (growth inhibition); for inhibition in vivo at 40 mg/kg: 40 mg/kg daily; for inhibition in vivo at 20 mg/kg: 20 mg/kg daily; for inhibition in vivo at 60 mg/kg: 60 mg/kg daily
Protocol: The treated group to which the compound of the present invention was administered consisted of seven mice, while the control group consisted of ten mice. Six weeks old male mice [BDF1 (C57BL/6×DBA/2), 25+2 g of body weight] were employed as host animals.
Tumor cells (5×10^5) of B-16 melanoma were transplanted subcutaneously in inguinal region of each mouse. The treatment began one day after the transplantation and the prescribed dose of each test compound was administered orally to the mice once a day for 8 days.
On the 20th day after the transplantation, the tumors of all the mice were excised and weighed. Antitumor activity of the test compound was evaluated by the rate of growth inhibition (G.I.%) which was calculated in the same manner as used in the animal test on Lewis lung carcinoma.

[2] = Animal test on acute toxicity; details: mouse, in vivo, ip; intraperitoneal, male ddY mice, observed 14 days, Litchfield-Wilcoxon method
Protocol: The test group to which the compound of the present invention was administered consisted of ten mice. Five weeks old male mice (ddY, 23±2 g of body weight) were employed as test animals.

[3] = test system: Colon adenocarcinoma No. 38; assay: Growth inhibition test on Colon adenocarcinoma No. 38; assay type: in vivo, mice (BDF1); details: orally, once a day for 8 days, tumor weight on 30th day
Protocol: The treated group to which the compound of the present invention was administered consisted of seven mice, while the control group consisted of ten mice. Six weeks old male mice [BDF1 (G57BL/6×DBA/2), 25±2 g of body weight] were employed as hosts animals.
Tumor cells (40 mg of fragment) of Colon adenocarcinoma No. 38 were transplanted subcutaneously in inguinal region of each mouse. The treatment began one day after the transplantation and the prescribed dose of each test compound was administered orally to the mice once a day for 8 days.
On the 30th day after the transplantaion, the tumors of all the mice were excised and weighed. Antitumor activity of the test compound was evaluated by the rate of growth inhibition (G.I.%) which was calculated in the same manner as used in the animal test on Lewis lung carcinoma.

[4] = test system: Lewis lung carcinoma; assay: Growth inhibition test on Lewis lung carcinoma; assay type: in vivo, mice (BDF1 (C57BL/6×DBA/2)); details: Mus musculus, po, 480 h, orally, once a day for 8 days, tumor weight on 20th day, read-out: G.I. (growth inhibition); for inhibition in vivo at 40 mg/kg: 40 mg/kg daily; for inhibition in vivo at 60 mg/kg: 60 mg/kg daily
Protocol: The treated group to which the compound of the present invention was administered consisted of seven mice, while the control group consisted of ten mice. Six weeks old male mice [BDF1 (C57BL/6×DBA/2), 25±2 g of body weight] were employed as host animals.
Tumor cells (5×10^5) of Lewis lung carcinoma were transplanted subcutaneously in inguinal region of each mouse. The treatment began one day after the transplantation and the prescribed dose of each test compound was administered orally to the mice once a day for 8 days.
On the 20th day after the transplantation, the tumors of all the mice were excised and weighed. Antitumor activity of the test compound was evaluated by the rate of growth inhibition (G.I.%) which was calculated with the following formula. [formula] T: mean tumor weight of treated mice C: mean tumor weight of control mice

[5] = test system: Hepatoma 22; assay: Growth inhibition test on Hepatoma 22; assay type: in vivo, mice (K-M); details: 25 mg/kg daily, orally, once a day for 9 days; tumor weight on 12th day
Protocol: The treated group to which the compound of the present invention was administered consisted of ten mice, while the control group consisted of twenty mice. Four weeks old female mice (K-M, 20±2 g of body weight) were employed as host animals.
Tumor cells (a 2 mm^3 fragment) of Hepatoma 22 were transplanted subcutaneously in the flank of each mouse. The treatment began one day after the transplantation and the prescribed dose of the test compound was administered orally to the mice once a day for 9 days.
(§1) On the 12th day after the transplantation, the tumors of all the mice were excised and weighed. Antitumor activity of the test compound was evaluated by the rate of growth inhibition (G.I.%) which was calculated in the same manner as used in the animal test on Lewis lung carcinoma.

[6] = test system: Sarcoma 37; assay: Growth inhibition test on Sarcoma 37; assay type: in vivo, mice (K-M); details: once a day for 10 days; for G.I. (growth inhibition): tumor weight on 12th day; for ED50: Mus musculus, 288 h
Protocol: The treated group to which the compound of the present invention was administered consisted of eight mice, while the control group consisted of sixteen mice. Four weeks old female mice (K-M, 20±2 g of body weight) were employed as host animals.
Tumor cells (0.2 ml of 1:5 suspension) of Sarcoma 37 were transplanted subcutaneously in the flank of each mouse. The treatment began one day after the transplantation and the prescribed dose (1.56-50 mg/kg) of dl-1,2-bis(4-morpholinomethyl-3,5-dioxopiperazin-1-yl)-propane was administered intraperitoneally (i.p.) or orally (p.o.) to the mice once a day for 10 days.
as §1

[7] = Solubility in water; assay type: physicochemical; details: 25° C.
[8] = Animal test on subacute toxicity; details: mouse, in vivo, ip; intraperitoneal, once a day for 8 days, female K-M mice, observed 14 days, Bliss-Finney method
Protocol: The test group to which the compound of the present invention was administered consisted of ten mice, while the control group consisted of ten mice. Four weeks old female mice (K-M, 20±2 g of body weight) were employed as test animals.
LD50 value of the subacute toxicity was determined by the Bliss-Finney statistical method.

Work on CC(CN1CC(=O)N(CN2CCSCC2)C(=O)C1)N1CC(=O)N(CN2CCSCC2)C(=O)C1 (racemic) [dl-1,2-Bis(4-thiomorpholinomethyl-3,5-dioxopiperazin-1-yl)-propane] yielded an inhibition in vivo at 40 mg/kg [1] of 77.5% and an LD50 at 336 h [2] of 330 mg/kg.

With CC(CN1CC(=O)N(CN2CCN(c3ccccc3)CC2)C(=O)C1)N1CC(=O)NC(=O)C1 (racemic) [dl-1-[4-(N-Phenylpiperazinomethyl)-3,5-dioxopiperazin-1-yl]-2-(3,5-dioxopiperazin-1-yl)-propane] the “G.I. (growth inhibition)” value ([3]; 40 mg/kg daily) was 93.5%, the inhibition in vivo at 20 mg/kg [1] was 60.8% and the LD50 at 336 h [2] was over 350 mg/kg. The inhibition in vivo at 40 mg/kg [4] was 76.2%.

CC(CN1CC(=O)N(CN2CCN(c3ccccc3)CC2)C(=O)C1)N1CC(=O)N(CN2CCN(c3ccccc3)CC2)C(=O)C1 (racemic) [dl-1,2-Bis[4-(N-phenylpiperazinomethyl)-3,5-dioxopiperazin-1-yl]-propane] showed an inhibition in vivo at 20 mg/kg [1] of 71%, an LD50 at 336 h [2] of 100 mg/kg and an inhibition in vivo at 40 mg/kg [4] of 89%.

CC(CN1CC(=O)N(CN2CCN(C)CC2)C(=O)C1)N1CC(=O)N(CN2CCN(C)CC2)C(=O)C1 (racemic) [dl-1,2-Bis[4-(N-methylpiperazinomethyl)-3,5-dioxopiperazin-1-yl]-propane] showed an LD50 at 336 h [2] of 300 to 400 mg/kg and an inhibition in vivo at 60 mg/kg [4] of 53.5%.

In the case of CC(CN1CC(=O)N(CN2CCOCC2)C(=O)C1)N1CC(=O)N(CN2CCOCC2)C(=O)C1 (racemic) [dl-1,2-Bis(4-morpholinomethyl-3,5-dioxopiperazin-1-yl)-propane], the “G.I. (growth inhibition)” value [5] is reported as 42.7%, the “G.I. (growth inhibition)” value ([3]; 60 mg/kg daily) is reported as 91.6% and the inhibition in vivo at 60 mg/kg [1] is reported as 93.8%. For the same compound, the LD50 at 336 h [2] was 255 mg/kg, the “G.I. (growth inhibition)” value ([6]; 1.56 mg/kg daily, i.p.) was 33.2% and the “G.I. (growth inhibition)” value ([6]; 3.12 mg/kg daily, i.p.) was 56.1%. For the same compound, the “G.I. (growth inhibition)” value ([6]; 3.12 mg/kg daily, p.o.) was 39.3%, the “G.I. (growth inhibition)” value ([6]; 6.25 mg/kg daily, i.p.) was 72.7% and the “G.I. (growth inhibition)” value ([6]; 6.25 mg/kg daily, p.o.) was 68.8%. The “G.I. (growth inhibition)” value ([6]; 12.5 mg/kg daily, i.p.) was 82.4%, the “G.I. (growth inhibition)” value ([6]; 12.5 mg/kg daily, p.o.) was 94.2% and the “G.I. (growth inhibition)” value ([6]; 25 mg/kg daily, i.p.) was 94.6%. For the same compound, the “G.I. (growth inhibition)” value ([6]; 25 mg/kg daily, p.o.) was 100%, the “G.I. (growth inhibition)” value ([6]; 50 mg/kg daily, i.p.) was 100% and the ED50 ([6]; ip) was 3.1 mg/kg. It also gave an ED50 ([6]; po) of 4.3 mg/kg, an inhibition in vivo at 60 mg/kg [4] of 89.3% and a solubility [7] of 20 mg/mL (≈ 42.9 mM). For the same compound, the LD50 at 336 h [8] was 178 mg/kg.

In the case of O=C1CN(CCN2CC(=O)N(CN3CCN(c4ccccc4)CC3)C(=O)C2)CC(=O)N1CN1CCN(c2ccccc2)CC1 [1,2-Bis[4-(N-phenylpiperazinomethyl)-3,5-dioxopiperazin-1-yl]-ethane], the “G.I. (growth inhibition)” value ([3]; 60 mg/kg daily) is reported as 97.9%, the inhibition in vivo at 60 mg/kg [1] is reported as 91.9% and the LD50 at 336 h [2] is reported as 200 to 300 mg/kg. For the same compound, the inhibition in vivo at 60 mg/kg [4] was 78.9%.

In the case of CC(CN1CC(=O)N(CN2CCOCC2)C(=O)C1)N1CC(=O)NC(=O)C1 (racemic) [dl-1-(4-Morpholinomethyl-3,5-dioxopiperazin-1-yl)-2-(3,5-dioxopiperazin-1-yl)-propane], the “G.I. (growth inhibition)” value ([3]; 40 mg/kg daily) is reported as 74.1%, the inhibition in vivo at 40 mg/kg [1] is reported as 76.1% and the inhibition in vivo at 40 mg/kg [4] is reported as 83.9%.

With CC1CC(C)CN(CN2C(=O)CN(CC(C)N3CC(=O)N(CN4CC(C)CC(C)C4)C(=O)C3)CC2=O)C1 (racemic) [dl-1,2-Bis[4-(3,5-dimethylpiperidinomethyl)-3,5-dioxopiperazin-1-yl]-propan] the inhibition in vivo at 60 mg/kg [1] was 91.2% and the inhibition in vivo at 60 mg/kg [4] was 77.4%.

For CC1CC(C)CN(CN2C(=O)CN(CCN3CC(=O)N(CN4CC(C)CC(C)C4)C(=O)C3)CC2=O)C1 (centres unmarked) [1,2-Bis[4-(3,5-dimethylpiperidinomethyl)-3,5-dioxopiperazin-1-yl]-ethane], the “G.I. (growth inhibition)” value ([3]; 60 mg/kg daily) was 83.1%, the inhibition in vivo at 60 mg/kg [1] was 68.9% and the LD50 at 336 h [2] was 400 to 500 mg/kg. It also gave an inhibition in vivo at 60 mg/kg [4] of 67.2%.

With O=C1CN(CCN2CC(=O)N(CN3CCOCC3)C(=O)C2)CC(=O)N1CN1CCOCC1 [1,2-bis(4-morpholinomethyl-3,5-dioxopiperazin-1-yl)-ethane, reference compound] the “G.I. (growth inhibition)” value [5] was 12.9%, the “G.I. (growth inhibition)” value ([3]; 60 mg/kg daily) was 72.8% and the inhibition in vivo at 60 mg/kg [1] was 48.9%. It also gave an LD50 at 336 h [2] of 280 mg/kg, an inhibition in vivo at 60 mg/kg [4] of 22.6% and an LD50 at 336 h [8] of 59.3 mg/kg.

For O=C1CN(CCN2CC(=O)N(CN3CCSCC3)C(=O)C2)CC(=O)N1CN1CCSCC1 [1,2-Bis(4-thiomorpholinomethyl-3,5-dioxopiperazin-1-yl)-ethane], the inhibition in vivo at 60 mg/kg [1] was 73.5%.
